Assay results taken from article PMC6980506, “Comparative pharmacokinetics and pharmacodynamics of the advanced Retinol-Binding Protein 4 antagonist in dog and cynomolgus monkey” (PLoS ONE, 2020).
Like-named read-outs stand apart in the source and are kept apart here.

Test: Single dose pharmacokinetic study in cynomolgus monkey
Format: in vivo
Description: Pharmacokinetic studies were conducted in male beagle dogs and male cynomolgus monkeys at SRI International, Menlo Park, CA. General procedures for animal care and housing were in accordance with the National Research Council (NRC) Guide for the Care and Use of Laboratory Animals (1996) and the Animal Welfare Standards incorporated in 9 CFR Part 3, 1991 and complied with guidelines set forth by the ARVO Animal Statement for the Use of Animals in Ophthalmic and Vision Research. During the course of the PK experiments, cynomolgus monkeys were individually housed in stainless steel primary enclosures in an AAALAC-accredited facility. Animals were fed a commercial monkey chow, and supplemental food was provided (fresh fruits, vegetables, seeds, and nuts). Reverse osmosis-purified drinking water was available at all times. Cynomolgus monkeys were maintained on a 12:12 hour light:dark cycle at the 64–84°F temperature and 30–70% humidity. Monkeys had access to enrichment opportunities (grooming devices, foraging devices, activity panels and mirrors) and were provided auditory stimuli and human interaction enrichment throughout the study. Blood samples were collected by venipuncture of a peripheral vein. Animals were acclimated to the squeeze back mechanism in their home cage by repeated, short periods of restraint during general husbandry procedures for at least 2 weeks prior to dosing. Animal were not removed from their cages for collection, and no anesthesia/analgesic agents were used for blood collection. […] For PK experiments, beagle dogs were individually housed in enclosed run (≥ 4 ft x 6 ft). Dogs were exposed to their daily ration of food, Harlan Teklad 2025C Certified Global 25% Protein Dog Diet. Water was provided from the public water supply (municipal tap water) ad libitum. Dogs were maintained on a 12:12 hour light:dark cycle at the 72–73°F temperature and 40–71% humidity. Every effort was made to minimize, if not eliminate, pain and suffering in all animals in this study. No restraining devices were used in blood collecting procedures. Dogs were gentle hand-held to restrain by trained technicians with the dogs foreleg extended for sample collection of blood from cephalic vein. Animals were awake during blood sample collection with no anesthesia/analgesic agents used, and positive reinforcement by the technician was provided following collection. […] All dogs were released back to the colony after the study was completed. Male beagle dogs and male cynomolgus monkey received a single i.v. dose of a test compound at 0.5 mg kg^−1 (dog) and 1 mg kg^−1 (monkey) or a single p.o. dose of a test compound of at 2 mg kg^−1 (dog) and 5 mg kg^−1 (monkey). The number of animals that was used in PK experiments is 3 per study group. Intravenous administration vehicle was 3% DMA/45% PEG300/12% ethanol/40% sterile water; p.o. vehicle was 2% Tween 80 in 0.9% saline. […] Blood samples were processed to plasma. Following protein extraction with acetonitrile, compound concentrations in plasma were measured by LC-MS/MS. The plasma drug level data were analyzed using WinNonlin software package; Model 201 (for i.v. bolus administration);was used for the analysis of i.v. data, and Model 200 (for extravascular administration) was used for the analysis of the p.o. data. Aliquots of pre-dose plasma samples, as well as aliquots of plasma PK samples, were used for the analysis of the plasmabiomarker, RBP4.
Administration to Non-Human Primates
II. MATERIALS AND METHODS

[1] = Cyno, 5.0 mg kg^−1 p.o., mean ± SD, n=3
[2] = male, cynomolgus monkey, plasma, iv, 1 mg/kg, non-human primate, iv 1.0 mg/kg, read-out: Plasma level, Individual animals
[3] = male, cynomolgus monkey, plasma, iv, 1 mg/kg, non-human primate, iv 1.0 mg/kg, read-out: Plasma level, Mean
[4] = male, cynomolgus monkey, plasma, po, 5 mg/kg, non-human primate, po 5 mg/kg, read-out: Plasma level, Individual animals
[5] = male, cynomolgus monkey, plasma, po, 5 mg/kg, non-human primate, po 5 mg/kg, read-out: Plasma level, Mean

%F, bioavailability (Cyno, 5.0 mg kg^−1 p.o. vs 1.0 mg kg^−1 i.v.): 84.3 ± 24.8%
AUCinf [1]: 826.6 ± 243.1 µg·h/mL
Cmax [1]: 31500 ± 200 ng/mL
AUC(0-inf) (male, cynomolgus monkey, plasma, iv, 1 mg/kg, Cyno, 1.0 mg kg^−1 i.v., mean ± SD, n=3): 196 ± 42.2 µg·h/mL
Cmax (male, cynomolgus monkey, plasma, iv, 1 mg/kg, Cyno, 1.0 mg kg^−1 i.v., mean ± SD, n=3, read-out: Cmax, maximum observed concentration at first time point): 11400 ± 600 ng/mL
concentration at 0.0083 hr [2]: 10900 ng/mL
concentration at 0.0083 hr [3]: 11400 ng/mL
concentration at 0.25 hr (male, cynomolgus monkey, plasma, iv, 1 mg/kg, non-human primate, iv 1.0 mg/kg, 0.25 hr, read-out: Plasma level, Individual animals): 10500 ng/mL
concentration at 0.25 hr (male, cynomolgus monkey, plasma, iv, 1 mg/kg, non-human primate, iv 1.0 mg/kg, 0.25 hr, read-out: Plasma level, Mean): 10700 ng/mL
concentration at 0.5 hr [2]: 9300 ng/mL
concentration at 0.5 hr [3]: 9570 ng/mL
concentration at 1 hr [2]: 9470 ng/mL
concentration at 1 hr [3]: 9060 ng/mL
concentration at 2 hr [2]: 8910 ng/mL
concentration at 2 hr [3]: 8080 ng/mL
concentration at 4 hr [2]: 7450 ng/mL
concentration at 4 hr [3]: 7080 ng/mL
concentration at 8 hr [2]: 6160 ng/mL
concentration at 8 hr [3]: 5890 ng/mL
concentration at 12 hr [2]: 4470 ng/mL
concentration at 12 hr [3]: 4780 ng/mL
concentration at 24 hr [2]: 2840 ng/mL
concentration at 24 hr [3]: 2930 ng/mL
concentration at 36 hr (male, cynomolgus monkey, plasma, iv, 1 mg/kg, non-human primate, iv 1.0 mg/kg, 36 hr, read-out: Plasma level, Mean): 1670 ng/mL
concentration at 48 hr (male, cynomolgus monkey, plasma, iv, 1 mg/kg, non-human primate, iv 1.0 mg/kg, 48 hr, read-out: Plasma level, Mean): 1050 ng/mL
AUC(0-t) (male, cynomolgus monkey, plasma, iv, Cyno, 1.0 mg kg^−1 i.v., mean ± SD, n=3): 171 ± 27 µg·h/mL
clearance (male, cynomolgus monkey, plasma, iv, Cyno, 1.0 mg kg^−1 i.v., mean ± SD, n=3, read-out: CL, total body clearance (converted)): 5.25 mL/h/kg
half-life (male, cynomolgus monkey, plasma, iv, Cyno, 1.0 mg kg^−1 i.v., mean ± SD, n=3, read-out: T1/2, apparent terminal half-life (converted)): 936 ± 198 min
Vd (male, cynomolgus monkey, plasma, iv, Cyno, 1.0 mg kg^−1 i.v., mean ± SD, n=3, read-out: Vss, volume of distribution at steady state): 0.113 ± 0.004 L/kg
bioavailability (male, cynomolgus monkey, plasma, oral, 5 mg kg^−1, Cyno, 5.0 mg kg^−1 p.o. vs 1.0 mg kg^−1 i.v., read-out: %F, bioavailability): ~84%
AUC(0-inf) (male, cynomolgus monkey, plasma, po, 5 mg/kg, Cyno, 5.0 mg kg^−1 p.o., mean ± SD, n=3): 676 µg·h/mL
Cmax (male, cynomolgus monkey, plasma, po, 5 mg/kg, Cyno, 5.0 mg kg^−1 p.o., mean ± SD, n=3, read-out: Cmax): 31400 ng/mL
concentration at 0.25 hr (male, cynomolgus monkey, plasma, po, 5 mg/kg, non-human primate, po 5 mg/kg, 0.25 hr, read-out: Plasma level, Individual animals): 9720 ng/mL
concentration at 0.25 h (male, cynomolgus monkey, plasma, po, 5 mg/kg, non-human primate, po 5 mg/kg, 0.25 hr, read-out: Plasma level, Mean): 11100 ng/mL
concentration at 0.5 h [4]: 28100 ng/mL
concentration at 0.5 h [5]: 22200 ng/mL
concentration at 1 hr [4]: 24600 ng/mL
concentration at 1 hr [5]: 29800 ng/mL
concentration at 2 hr [4]: 32400 ng/mL
concentration at 2 hr [5]: 31200 ng/mL
Compound: Cc1cc(C(=O)O)nc(N2C[C@H]3C[C@@H](c4ccccc4C(F)(F)F)C[C@H]3C2)n1 [BPN-14136]
